Earlier results, collected in patent US20080299189A1, “CONTROLLED RELEASE DOPAMINE AGONIST COMPOSITIONS” (DRUGTECH CORPORATION, priority 2007, published 2008).

Experiments:
[1] = compared to placebo

half-life (in vivo): 8.5 h
Cmax (printed as a time): 1 to 3 h
relative risk of hallucination [1]: 5.2
relative risk of hypotension [1]: 1.65
relative risk of somnolence [1]: 2.01
SMILES: CCCN[C@H]1CCc2nc(N)sc2C1 [pramipexole, (S)-2-amino-4,5,6,7-tetrahydro-6-(propylamino)benzothiazole]
